Data on 3 molecules can be found in patent US20190083521A1, “COMBINATION THERAPY FOR TREATING CANCER” (Epizyme, Inc., priority 2014, published 2019).

In test [1] the test system is OCI-AML-4 (MLL-ENL) cells. Briefly: Example 7 retest: EPZ-5676 pre-treatment, second compound 72 h, Cell Titer Glo, growth inhibition. To be noted: OCI-AML-4 (MLL-ENL); for Combination result with EPZ-5676, Retest: 300 nM EPZ-5676 pre-treatment vs DMSO. It counts as cell-based. The method, then: (§1) Cells were then treated with a second compound for 72 hours. After this time, plates were developed for endpoint analysis using Cell Titer Glo to measure ATP content, which is used as an indicator of cell viability.
(§2) “N/D” means the GI100 of the second compound could not be determined for both conditions and “-” means not tested.
(§3) Growth Inhibition (GI) as a measure of cell viability: The cell viability of vehicle was measured at the time of dosing the second agent (T0) and after seventy-two hours (T72). […] A GI 200% represents complete death of all cells in the culture well. Compounds reaching an activity plateau of GI 200% are considered cytotoxic. GI is calculated by applying the following test and equation: […]
(In general: ATP-based viability assays read luminescence as a measure of living cells.)

The test system of test [2] is ML-2 (MLL-AF6) cells. Described as above. It is filed as cell-based. Set-up: GI100: unit not given here. To be noted: ML-2 (MLL-AF6), KRAS A146T (het); for GI50 / GI100: second compound, 72 h. The method, then:
as §1, §2, §3

Test [3] concerns RS4-11 (MLL-AF4) cells. Described as above. It is filed as cell-based. Details: GI100: unit not given here. The settings on record: RS4-11 (MLL-AF4), Ras mutation status: None known, second compound, 72 h; for GI50: Homo sapiens. The protocol: as §1, §2, §3
Test [4] relates to MOLM-13 (MLL-AF9) cells. The description is as above. It counts as cell-based, human. Set-up: GI100: unit not given here. To be noted: MOLM-13 (MLL-AF9); for GI50: Homo sapiens; for GI50 / Result (combination with EPZ-5676) / GI100: Ras mutation status: None known; for GI50 / GI100: second compound, 72 h; for Combination result with EPZ-5676, Retest: 150 nM EPZ-5676 pre-treatment vs DMSO. The protocol: as §1, §2, §3

For test [5], the system named is SKM-1 (non-MLLr) cells. Described as above. It counts as cell-based, human. Set-up: GI100: unit not given here. The settings on record: SKM-1 (non-MLLr); for Combination result with EPZ-5676, Retest: 300 nM EPZ-5676 pre-treatment vs DMSO; for Result (combination with EPZ-5676) / GI50 / GI100: KRAS K117N (homo); for GI50 / GI100: second compound, 72 h. The protocol: as §1, §2, §3

The test system of test [6] is THP-1 (MLL-AF9) cells. The description is as above. To be noted: NRAS G12D. It is filed as cell-based. Details: GI100: unit not given here. The protocol:
Cells were split using EPZ-5676 or DMSO containing growth media and further incubated for an additional 3-day pre-treatment time. Cells were finally seeded in growth media containing EPZ-5676 or DMSO in 96-well plates. Cells were then treated with a second compound for 72 hours. After this time, plates were developed for endpoint analysis using Cell Titer Glo to measure ATP content, which is used as an indicator of cell viability.
as §2
Growth Inhibition (GI) as a measure of cell viability: The cell viability of vehicle was measured at the time of dosing the second agent (T0) and after seventy-two hours (T72). A GI reading of 0% represents no growth inhibition—cells treated with test compound as compared to T72 vehicle signals were measured. […] A GI 200% represents complete death of all cells in the culture well. Compounds reaching an activity plateau of GI 200% are considered cytotoxic. GI is calculated by applying the following test and equation: […]

For test [7], the system named is SKM-1 (non-MLL-rearranged AML) cells. Briefly: Combination proliferation assay with Compound A2 (CellTiter-Glo, Chou-Talalay CI). It counts as cell-based, human. The settings on record: SKM-1; Compound A2 concentrations greater than 1000 nM. The protocol: Graphs representing values of combination index (CI) versus Fractional effect (Fa) known as Fa-CI plots were generated and synergy was evaluated.
(§4) Viability was determined using CellTiter-Glo® (Promega).
MV4-11 cells were maintained in IMDM supplemented with 10% fetal bovine serum. MOLM-13 and SKM-1 cells were maintained in Roswell Park Memorial Institute medium (RPMI) supplemented with 10% fetal bovine serum. They were cultured in flasks or plates in a humidified 5% CO2 atmosphere.
(§5) Proliferation studies were performed using MOLM-13, MV4-11 and SKM-1 cell lines in vitro to evaluate the cancer cell killing effect of a combination of two agents together on cell growth. Initial proliferation studies were performed to determine the IC50 values of a given compound in each cell line. The cell counts were measured by ATP quantitation using the Promega Cell Titer Glo kit and luminescence values correspond to the amount of ATP in a given well.
(§6) Compounds evaluated for synergy in the co-treatment phase were tested in a range which was bracketed around the IC50's. The compounds were plated to a 96 well plate in a matrix format which includes increasing concentrations of each drug in the combination in a constant ratio, in addition to the effect of each compound alone in the study. Cells were seeded and grown in the log-linear phase for 3 or 7 days in the cotreatment phase. Maximum and minimum inhibition (DMSO alone) controls were used in each plate to calculate fraction affected (Fa) of a test well. DMSO concentration was kept at 0.1% v/v. The drug combination analysis was performed utilizing the Chou-Talalay method. Synergy was determined using the software package Calcusyn by Biosoft. The combination index (CI) is the term used to describe the level of synergy or antagonism in a given test system. A combination index less than one indicates synergy, and a CI greater than one indicates antagonism.
(§7) The drug combination analysis was performed using the Chou-Talalay method. Graphs representing values of combination index (CI) versus Fractional effect (Fa) known as Fa-CI plots were generated and synergy was evaluated.

Test [8] concerns MV4-11 (MLL-AF4) cells. Described as above. It is filed as cell-based, human. The settings on record: MV4-11 (MLL-AF4); 7 Day Cotreatment Model. The protocol:
(§8) The acute myelogenous leukemia cell lines MV4-11 (MLL-AF4) and MOLM-13 (MLL-AF9) were obtained from American Type Culture Collection (ATCC; Rockville, Md.) and Deutsche Sammlung von Mikroorganismen and Zellkulturen (DSMZ; Braunschweig, Germany) respectively.
(§9) Studies were performed using MLL-rearranged cell lines in vitro to evaluate the anti-proliferative effect of a combination of two agents together on cell growth. Initial proliferation studies were performed to determine the IC50 of a given compound in each cell line. The cell counts were measured by ATP quantitation using the Promega Cell Titer Glo kit and luminescence values corresponded to the amount of ATP in a given well.
(§10) Compounds were evaluated for synergy in the co-treatment phase by testing the compounds in a concentration range which was bracketed around their IC50 values. The compounds were plated to a 96 well plate in a matrix format (FIG. 3) which includes increasing concentrations of each drug in the combination in a constant ratio, in addition to the effect of each compound alone in the study. Cells were seeded and grown in the log-linear phase for 3 or 7 days in the co-treatment phase. Minimum inhibition (DMSO alone) controls were used in each plate to calculate fraction affected (Fa) of a test well. DMSO concentration was kept at 0.1% v/v.
(§11) The drug combination analysis was performed utilizing the Chou-Talalay method Synergy was determined using the software package Calcusyn by Biosoft. The combination index (CI) is a quantitative term used to describe the level of synergy or antagonism in a given test system. A combination index less than one indicates synergy, and a CI greater than one indicates antagonism. Further, strong synergism is achieved when the CI value falls below 0.3.
(§12) The HP-D300 digital dispenser (Tecan) was used to dispense compounds in a combinatorial matrix. […] Cell viability was measured via ATP content using CellTiter-Glo® (Promega).
as §4, §5
(§13) These studies were performed to evaluate both the combinatorial effect of compounds on cell killing and the durability of the effect by washing out one of the agents.
as §6
The drug combination analysis was performed using the Chou-Talalay method. Graphs representing values of combination index (CI) versus Fractional effect (Fa) known as Fa-CI plots were generated and synergy was evaluated. Drug synergy was statistically defined by CI values less than 1, antagonism by CI>1 and additive effect by CI equal to 1.

The subject of test [9] is MOLM-13 (MLL-AF9) cells. Described as above. It counts as cell-based, human. The settings on record: MOLM-13 (MLL-AF9); 7 Day Cotreatment Model. The method, then:
as §8, §9, §10, §11, §12, §4
Cell viability was measured via ATP content using CellTiter-Glo® (Promega).
as §5, §13, §6, §7

Where [10] appears, read: NRAS Q61R (het), second compound, 72 h.

As usually defined, the GI50 is the concentration giving 50% growth inhibition. Regarding `CC(C)Nc1cc(-c2c[nH]c(C(=O)N[C@H](CO)c3cccc(Cl)c3)c2)c(Cl)cn1` [Ulixertinib], the “Combination result with EPZ-5676, Retest” value in [1], in [4] and in [5] was “Synergy (considered synergistic if the GI100 (Growth inhibition 100) value of the second compound decreased by 2-fold or more when EPZ-5676 was added as compared to the DMSO control)” throughout. Moreover, the “Result (combination with EPZ-5676)” value in test [1] (NRAS Q61R (het)), in test [2], in [4] and in test [5] was “Synergy (considered synergistic if the GI100 (Growth inhibition 100) value of the second compound decreased by 2-fold or more when EPZ-5676 was added as compared to the DMSO control)” throughout. For the same molecule, the GI50 in [1] (setting [10]) was 2.1 µM; in test [2], 0.63 µM; in test [3], over 10 µM; in test [4], 1.67 µM; in test [5], 0.44 µM; in test [6] it was 0.81 µM. The GI100 in test [2] was 2.711; in test [3] it was over 10; in test [4], 3.96; in test [5], 1.500.

As to `Cn1cnc2c(F)c(Nc3ccc(Br)cc3F)c(C(=O)NOCCO)cc21` [Binimetinib (MEK-162), Binimetinib], the “Combination result with EPZ-5676, Retest” value in [1], in test [4] and in test [5] was “Synergy (considered synergistic if the GI100 (Growth inhibition 100) value of the second compound decreased by 2-fold or more when EPZ-5676 was added as compared to the DMSO control)” in each case. For the same molecule, the “Result (combination with EPZ-5676)” value in [1] (NRAS Q61R (het)), in [2], in [4] and in test [5] was “Synergy (considered synergistic if the GI100 (Growth inhibition 100) value of the second compound decreased by 2-fold or more when EPZ-5676 was added as compared to the DMSO control)” in each case. Further, the GI50 in test [1] (setting [10]) was 0.059 µM; in test [2], 0.03 µM; in test [3], over 10 µM; in test [4] it was 0.72 µM; in test [5], 0.01 µM; in test [6], 0.09 µM. The GI100 in test [1] (setting [10]) is 1.504; in [2], 0.50; in test [3], over 10; in test [4], 3.96; in [5], 0.07; in [6] it was over 10.

Take `C[C@]12C=CC(=O)C=C1CC[C@@H]1[C@@H]2[C@@H](O)C[C@@]2(C)[C@H]1CC[C@]2(O)C(=O)CO` [Prednisolone]: the “Antiproliferative activity in presence of Compound A2” value in [7] is listed as “enhanced antiproliferative activity”. Besides, the “Combination effect with Compound A2 (Table 4)” value in test [8] and in [9] was “antagonism” in each case.
